Inhibition of growth data for 5 compounds are collected here from ChEMBL document CHEMBL5154747, “Discovery of new carbonic anhydrase IX inhibitors as anticancer agents by toning the hydrophobic and hydrophilic rims of the active site to encounter the dual-tail approach” (Eur J Med Chem, 2022).

Common to all, as to format: functional
Holding throughout (conditions): read-out: GI

For one assay, the system named is RXF 393. In words: Anticancer activity against human RXF 393 cells assessed as cell growth inhibition at 10 uM incubated for 48 hrs by SRB assay relative to control. On the technique in general: In SRB staining, fixed cells bind dye roughly in proportion to their protein.
Another assay has as its system SF-268. In words: Anticancer activity against human SF-268 cells assessed as cell growth inhibition at 10 uM incubated for 48 hrs by SRB assay relative to control.
The subject of another assay is LOX IMVI. In words: Anticancer activity against human LOX IMVI cells assessed as cell growth inhibition at 10 uM incubated for 48 hrs by SRB assay relative to control.
Another assay concerns OVCAR-5. The assay can be described thus: Anticancer activity against human OVCAR-5 cells assessed as cell growth inhibition at 10 uM incubated for 48 hrs by SRB assay relative to control.
Another assay deals with HCT-116. The assay can be described thus: Anticancer activity against human HCT-116 cells assessed as cell growth inhibition at 10 uM incubated for 48 hrs by SRB assay relative to control.
The subject of the next assay is HL-60(TB). In words: Anticancer activity against human HL-60(TB) cells assessed as cell growth inhibition at 10 uM incubated for 48 hrs by SRB assay relative to control.
The next assay relates to HCT-15. In words: Anticancer activity against human HCT-15 cells assessed as cell growth inhibition at 10 uM incubated for 48 hrs by SRB assay relative to control.
The next assay relates to IGROV-1. In words: Anticancer activity against human IGROV-1 cells assessed as cell growth inhibition at 10 uM incubated for 48 hrs by SRB assay relative to control.
For the next assay, the system named is SNB-75. In words: Anticancer activity against human SNB-75 cells assessed as cell growth inhibition at 10 uM incubated for 48 hrs by SRB assay relative to control.
The next assay relates to MDA-MB-231. The assay can be described thus: Anticancer activity against human MDA-MB-231 cells assessed as cell growth inhibition at 10 uM incubated for 48 hrs by SRB assay relative to control.
The test system of the next assay is TK-10. The assay can be described thus: Anticancer activity against human TK-10 cells assessed as cell growth inhibition at 10 uM incubated for 48 hrs by SRB assay relative to control.
Another assay concerns OVCAR-4. The assay can be described thus: Anticancer activity against human OVCAR-4 cells assessed as cell growth inhibition at 10 uM incubated for 48 hrs by SRB assay relative to control.
The test system of a further assay is SK-MEL-28. The assay can be described thus: Anticancer activity against human SK-MEL-28 cells assessed as cell growth inhibition at 10 uM incubated for 48 hrs by SRB assay relative to control.
Another assay deals with BT-549. In words: Anticancer activity against human BT-549 cells assessed as cell growth inhibition at 10 uM incubated for 48 hrs by SRB assay relative to control.
Another assay deals with 786-0. In words: Anticancer activity against human 786-0 cells assessed as cell growth inhibition at 10 uM incubated for 48 hrs by SRB assay relative to control.
A further assay concerns ACHN. In words: Anticancer activity against human ACHN cells assessed as cell growth inhibition at 10 uM incubated for 48 hrs by SRB assay relative to control.
A further assay relates to SR. The assay can be described thus: Anticancer activity against human SR cells assessed as cell growth inhibition at 10 uM incubated for 48 hrs by SRB assay relative to control.
For a further assay, the system named is MOLT-4. The assay can be described thus: Anticancer activity against human MOLT-4 cells assessed as cell growth inhibition at 10 uM incubated for 48 hrs by SRB assay relative to control.
For a further assay, the system named is NCI/ADR-RES. In words: Anticancer activity against human NCI/ADR-RES cells assessed as cell growth inhibition at 10 uM incubated for 48 hrs by SRB assay relative to control.
A further assay has as its system SN12C. The assay can be described thus: Anticancer activity against human SN12C cells assessed as cell growth inhibition at 10 uM incubated for 48 hrs by SRB assay relative to control.

Consider `NNc1nc(Nc2ccccc2)nc(Nc2ccc(S(N)(=O)=O)cc2)n1`, for which the inhibition of growth at 10 µM in the assay on RXF 393, with SF-268, in the assay on LOX IMVI, in the assay with OVCAR-5, with HCT-116 and in the assay with HL-60(TB) was less than 10% each time. For the same compound, the inhibition of growth at 10 µM in the assay on HCT-15, in the assay on IGROV-1, with SNB-75, in the assay on MDA-MB-231, with TK-10 and with OVCAR-4 was less than 10% throughout. For the same compound, the inhibition of growth at 10 µM is less than 10% in the assay on SK-MEL-28; less than 10% in the assay on BT-549; less than 10% with 786-0; less than 10% in the assay with ACHN; 32% in the assay on SR; 81% with MOLT-4. Also, the inhibition of growth at 10 µM with NCI/ADR-RES and in the assay with SN12C was less than 10% throughout.

For `NS(=O)(=O)c1ccc(Nc2nc(N/N=C/c3ccc(Cl)cc3)nc(Nc3ccccc3)n2)cc1`, the inhibition of growth at 10 µM with RXF 393 was 111%; with SF-268, 26%; with LOX IMVI, 39%; with OVCAR-5 it was 16%; in the assay with HCT-116 it was 55%; with HL-60(TB), 27%. Further, the inhibition of growth at 10 µM with HCT-15 was 23%; in the assay with IGROV-1, 33%; with SNB-75, less than 10%; in the assay on MDA-MB-231, 13%; with TK-10 it was less than 10%; with OVCAR-4, 16%. The inhibition of growth at 10 µM in the assay with SK-MEL-28 was 24%; in the assay on BT-549, 25%; in the assay with 786-0, 59%; with ACHN it was less than 10%; with SR, 81%; in the assay on MOLT-4, 98%. The inhibition of growth at 10 µM in the assay on NCI/ADR-RES was less than 10%; with SN12C, 18%.

For the compound `Cc1ccc(/C=N/Nc2nc(Nc3ccccc3)nc(Nc3ccc(S(N)(=O)=O)cc3)n2)cc1`, the inhibition of growth at 10 µM in the assay on RXF 393 amounted to 102%; in the assay on SF-268, 12%; in the assay with LOX IMVI, 45%; in the assay on OVCAR-5, 15%; in the assay on HCT-116 it was 48%; in the assay on HL-60(TB), 24%. In addition, the inhibition of growth at 10 µM with HCT-15 was 46%; with IGROV-1, 46%; in the assay on SNB-75, 32%; in the assay on MDA-MB-231, 26%; with TK-10, less than 10%; with OVCAR-4, 30%. Moreover, the inhibition of growth at 10 µM stood at 24% in the assay on SK-MEL-28; 23% in the assay on BT-549; 53% in the assay with 786-0; 38% in the assay with ACHN; 64% with SR; 59% in the assay with MOLT-4. Further, the inhibition of growth at 10 µM with NCI/ADR-RES was less than 10%; in the assay with SN12C, 17%.

`NS(=O)(=O)c1ccc(Nc2nc(N/N=C/CCc3ccccc3)nc(Nc3ccccc3)n2)cc1`: the inhibition of growth at 10 µM with RXF 393, with SF-268, with LOX IMVI, with OVCAR-5, in the assay with HCT-116 and with HL-60(TB) was less than 10% each time. Further, the inhibition of growth at 10 µM with HCT-15, with IGROV-1, with SNB-75, in the assay on MDA-MB-231, in the assay with TK-10 and with OVCAR-4 was less than 10% in each case. In addition, the inhibition of growth at 10 µM in the assay with SK-MEL-28, in the assay on BT-549, in the assay on 786-0, with ACHN, in the assay with SR and with MOLT-4 was less than 10% each time. The inhibition of growth at 10 µM in the assay on NCI/ADR-RES and in the assay on SN12C was less than 10% in each case.

Consider `NS(=O)(=O)c1ccc(Nc2nc(N/N=C/c3cccc4ccccc34)nc(Nc3ccccc3)n2)cc1`, for which the inhibition of growth at 10 µM in the assay with RXF 393 is 64%; with SF-268 it was 12%; in the assay on LOX IMVI it was 44%; in the assay with OVCAR-5, less than 10%; in the assay with HCT-116, 45%; in the assay on HL-60(TB) it was 28%. In addition, the inhibition of growth at 10 µM with HCT-15 was 29%; with IGROV-1, 26%; in the assay with SNB-75, less than 10%; in the assay with MDA-MB-231, less than 10%; in the assay with TK-10 it was less than 10%; with OVCAR-4 it was 16%. Moreover, the inhibition of growth at 10 µM is 20% with SK-MEL-28; less than 10% in the assay on BT-549; 56% with 786-0; 18% in the assay with ACHN; 65% in the assay with SR; 84% in the assay on MOLT-4. Moreover, the results for the inhibition of growth at 10 µM in the assay on NCI/ADR-RES and in the assay on SN12C were less than 10% and 12%, respectively.
